Measured values published in PubChem BioAssay AID179 (DTP/NCI, 2004).
pEC50, pIC50: −log10 of the molar value. Several values for one entry are separate records, joined by “and”; a condition that tells them apart may be missing. Equal entries are not always repeated. Activity calls are given as the source filed them.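 The calls were made as follows: active = compounds giving half or more protection of infected cells from virus-caused growth loss, again on retest; inactive = the rest.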 Where a SMILES comes first, the peptide text is derived from it. The star is where a group is joined. Cbz = O=C(OCc1ccccc1)*

Test system: CEM cells HIV-1 protection, formazan growth assay
Assay: NCI AIDS Antiviral Assay
Conditions: for pIC50: measured here: growth of uninfected CEM cells
How it was run: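 Protection of CEM cells against HIV-1 measured as cell growth via soluble formazan read-out, with five concentrations tested on both infected and uninfected cells; failure to protect may reflect toxicity.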

SMILES | pEC50 | pIC50 | outcome
O=C(O)c1cccc(S(=O)(=O)NN2C(=O)CSC2c2ccccc2)c1 (centres undefined) | < 3.70 | < 3.70 | 
CC(=O)NC1=NC(=O)/C(=C/c2ccc(/C=C3/C(=O)N=C(NC(C)=O)N3C)cc2)N1C | < 3.70 | 3.82 | 
CC1=C(C#N)C(N)=C2C(C)=C(C#N)C(N)=C12 |  |  | inactive
Cc1cc2nc3nc(N)nc(NS(=O)(=O)c4cc(C)c(Cl)cc4S)n3c2cc1C | 3.99 | 3.42 | 
Oc1[nH]c2ccccc2c1N=NC(=S)Nc1ccccc1Cl | < 3.70 | 5.82 | 
Clc1ccc(SSc2ccc(Cl)cn2)nc1 | < 3.70 | 4.69 | 
CNC(C)(C)C(SSSC(c1ccc(Cl)cc1)C(C)(C)NC)c1ccc(Cl)cc1 (centres undefined) | < 3.70 | 5.45 | 
COC(=O)C(NC(=O)C(C)NC(=O)C1CCCN1C(=O)CNC(=O)C(CO)NC(=O)C(NC(=O)OCc1ccccc1)C(C)O)C(C)O (centres undefined) (Cbz-TSGPAT-OMe; configuration not given here) | < 3.44 | < 3.44 | 
COc1ccc2c(c1)C(N)=C(c1ccccc1OC)C2=O | < 3.70 | 3.92 | 
O=C1c2ccccc2C(=O)C1C(c1ccc(F)cc1)C1C(=O)c2ccccc2C1=O | < 4.33 | 4.44 | 
c1ccc(C2Nc3ccccc3C3OCCCC23)cc1 (centres undefined) | < 4.15 | < 4.15 | 
COc1ccc(N2C(=O)C3c4[nH]c5cc(Cl)ccc5c4C4CCC(C(C)(C)C)CC4C3C2=O)cc1 (centres undefined) | < 3.70 | 4.04 | 
O=C(O)c1cc(O)c2c(c1)Cc1cccc(O)c1C2=O | < 3.70 | 4.54 | 
O=C(O)CCC(NC(=O)c1ccc(Nc2cnc3ccc(C(F)(F)F)cc3n2)cc1)C(=O)O (centres undefined) | < 3.70 | < 3.70 | 
O=C1OC2(c3ccccc31)c1ccc(O)c(O)c1Oc1c2ccc(O)c1O | < 3.70 | 4.44 and 4.48 and 5.02 | 
CC1CC2OC(=O)C3CCCC(=C23)[C@@]12C[C@@H](c1ccoc1)OC2=O (some centres undefined) | < 3.26 | 3.57 | 
CCOC(=O)c1ccc2c(=O)[nH]nc(CO)c2c1 | < 3.70 | 3.93 | 
CC1OC(OC2C(O)COC(OC3C(C)OC(OC4C(OC(=O)[C@]56CCC(C)(C)C[C@@H]5C5=CCC7[C@@]8(C)C[C@H](O)[C@H](OC9OC(CO)C(O)C(OC%10OC(CO)C(O)C(O)C%10O)C9O)[C@@](C)(CO)[C@@H]8CC[C@@]7(C)[C@]5(C)CC6)OCC(O)C4O)C(O)C3O)C2O)C(O)C(O)C1O (some centres undefined) | < 4.23 | 4.67 | 
O=C(CNC(=O)OCc1ccccc1)NCCCCC(NC(=O)OCc1ccccc1)C(=O)NC(CCCCNC(=O)CNC(=O)OCc1ccccc1)C(=O)OCc1ccccc1 (centres undefined) | < 4.00 | < 4.00 | 
O=c1oc2ccccc2c(-c2ccc(O)cc2)c1Oc1ccccc1 | < 3.70 | 4.70 | 
C[N+](C)(C)CCC#CC[N+]1(C)CCCC1 |  |  | inactive

SMILES | pEC50 | pIC50 | outcome
CCCC(C(=O)OC)C1N=C(NC#N)N(Cc2ccccc2)C1=O (centres undefined) | < 3.96 | < 3.96 | 
Cc1cc2c(cc1Cl)SSc1cc(Cl)c(C)cc1S(=O)(=O)Nc1nc(N)nn1C(O)n1nc(N)nc1NS2(=O)=O | 4.05 | < 4.00 | 
CN(C)c1ccc(/C=C2\CCCCCC2=O)cc1 | < 3.70 | 4.57 | 
O=C1c2ccccc2NC2(C(=O)Nc3ccccc32)N1N1CCOCC1 (centres undefined) | < 3.70 | < 3.70 | 
OCc1cc2c(cn1)[nH]c1ccc(NCc3ccccc3)cc12 |  |  | inactive
COc1ccccc1C1C(Cl)C(=O)N1NC(=O)Cc1ccccc1 (centres undefined) | < 4.40 | < 4.40 | 
c1ccc(CCN2CCc3[nH]c4ccccc4c3C2)cc1 | < 3.70 | 4.40 | 
O=C(Nc1cccc2c(OC(=O)C(Cl)Cl)c(N=Nc3ccc(S(=O)(=O)Nc4nccs4)cc3)cc(N=Nc3ccc(S(=O)(=O)Nc4nccs4)cc3)c12)C(Cl)Cl (tested in a mixture with another compound) | 4.33 and < 4.30 |  | inactive
N#CCC[P+](c1ccccc1)(c1ccccc1)c1ccccc1 | < 3.70 | 4.26 | 
Cc1cc(N(CCC#N)CCC#N)ccc1/C=N/NC(=O)c1cc(Cl)ccc1O | < 3.70 | < 3.70 | 
O=C1Nc2n[nH]c(=S)n2NC12c1ccccc1-c1ccccc12 | < 3.70 | < 4.00 | 
O=C(C[C@H](NC(=O)OCc1ccccc1)C(=O)NC1Cc2ccccc2OC1=O)OCc1ccccc1 (some centres undefined) | < 3.70 | 4.03 | 
Clc1ccc(Nc2nnc(CNc3ccc(-c4nnc(Nc5ccc(Cl)cc5)s4)cc3)s2)cc1 | < 3.70 | 4.88 | 
Oc1cc(-c2ccc(Cl)cc2)cn2c1nc1ccccc12 | < 3.70 | 5.01 | 
CNC(=O)OCC1=CC(=O)C(C)=CC1=O | < 4.22 | 5.26 | 
O=C1CCCCC/C1=C\c1ccc(F)cc1 | < 3.70 | 4.21 | 
COc1cc2nn(-c3ccccc3)nc2c2nonc12 | < 3.70 | < 3.70 | 
CC(C)(C)OC(=O)NCCCCC(NC(=O)c1ccccc1)C(N)=O (centres undefined) | < 3.70 | < 3.70 | 
Nc1nc2c(c(=O)[nH]1)NC(CO)CN2 (centres undefined) |  |  | inactive
O=C(Nc1ccc(Cl)c(Cl)c1)OCn1ncc2ccc([N+](=O)[O-])cc21 | < 3.70 | 3.88 | 
CCOc1ccccc1NC(=O)C1=C(C)NC(C)=C(C(=O)Nc2ccccc2OCC)C1c1ccc2c(c1)OCO2 | < 4.89 | < 4.89 | 

SMILES | pEC50 | pIC50 | outcome
C#CCn1c2c(c3ccccc3c1=O)C(=O)c1ccccc1-2 | < 4.20 | < 4.20 | 
CC(C)(C)CP(CCP(C)(C)=S)CC(C)(C)C | < 4.35 | < 4.35 | 
Cc1ccccc1NC(=O)CC1C(=O)Nc2ccccc2S1=O (centres undefined) | < 4.66 | < 4.66 | 
CC(C)(C)OC[C@H]1N([C@H](COCc2ccccc2)c2ccccc2)C(=O)C1(C)C | < 3.77 | 3.93 | 
C#CCCOC(=O)c1ccccc1OC(C)=O | < 3.70 | < 3.70 | 
O=c1ccc(=Nc2ccc(NNc3ccccc3)cc2)c2c(=O)c3c([N+](=O)[O-])ccc(O)c3c(=O)c1=2 | < 4.00 | 4.75 | 
Cn1c(=O)n2n(c1=O)C1CCC2CC1 | < 2.89 | 3.36 | 
COc1ccc(/C=C\c2cc(OC)c(OC)c(OC)c2)cc1OP(=O)(O)O | < 4.45 | 7.55 | 
COc1cccc(NC(=O)/C(Cc2nc3ccccc3nc2C)=N/NC(=O)C[n+]2ccccc2)c1 | < 4.02 | < 4.02 | 
CC1=N/C(=C\c2ccccc2C)C(=O)O1 | < 2.91 | < 2.91 | 
CC(C)CCCC(C)[C@H]1CC[C@H]2[C@@H]3CC[C@H]4C[C@@H](CCC=C(c5cc(Cl)c(OC(=O)C(C)C)c(C(=O)O)c5)c5cc(Cl)c(OC(=O)C(C)C)c(C(=O)O)c5)CC[C@]4(C)[C@H]3CC[C@]12C (some centres undefined) | 3.98 | 3.90 | 
CC1=C(C)CS(=O)N(c2ccccc2)C1 (centres undefined) | < 3.70 | 4.05 | 
Cc1nc(N)nc(N)c1N1CCN(c2ccc(C(=O)NC(CCC(=O)O)C(=O)O)cc2)CC1 (centres undefined) | < 3.70 | 7.20 | 
CC1=C(c2cc(C(=O)Nc3ccc(Cl)c(Cl)c3)nc(N)n2)Sc2ccccc2N1 | < 4.09 | < 4.09 | 
CCN(CC)C/C(C)=C(/c1ccccc1)c1ccccc1S(N)(=O)=O | < 3.70 | < 3.70 | 
Cn1c(=O)n2n(c1=O)C1C3C4C5C3C13COCC53C42 (centres undefined) |  |  | inactive
CCCC(C)(O)CN (centres undefined) |  |  | inactive
CC(=O)NC1=N/C(=C/c2cc([N+](=O)[O-])ccc2O)CN1C | < 3.70 | < 3.70 | 
CCOC(=O)C(=O)N1C(C)=C(C(=O)OCC)CC(C(=O)OCC)=C1C | < 3.70 | < 3.70 | 
COc1cc2c3c(c1)ncn3C(=O)C(c1ccccc1)S2 (centres undefined) | < 3.70 | 4.06 | 
CCO[C@]12C[C@H](OC)[C@@]3(O)CC(C1[C@H]3OCc1ccccc1)C13C4C2[C@H](OC)C1[C@](COC)(CN4CC)[C@H](O)C[C@@H]3OC (some centres undefined) | 4.77 | 3.93 | 

SMILES | pEC50 | pIC50 | outcome
CCNc1nnc(CSc2nc(-c3ccccc3)c(-c3ccccc3)[nH]2)s1 | < 4.60 | 4.89 | 
O=C(O)CCSSCCCCS(=O)O | < 3.70 | 5.69 | 
COc1cc([N+](=O)[O-])ccc1NC(=O)C(F)(F)F | < 3.70 | 4.24 | 
COc1cc2c(c3c1c(=O)c1ccccc1n3C)C=CC1(CCCC1)O2 | < 3.70 | 4.96 | 
O=c1cc(N=Nc2ccc(Cl)cc2)[nH]c(=O)[nH]1 | < 5.70 | 6.07 | 
COc1cc(OC)cc(OCc2nc3cc(C(F)(F)F)ccc3nc2-c2ccccc2)c1 | < 3.70 | 4.28 | 
O=C1N=C(C=c2ccc(=Cc3[nH]c(=O)n(CN4CCCCC4)c3O)cc2)C(=O)N1CN1CCCCC1 | < 4.00 | 4.65 | 
CC(C)(C)OC(=O)Cc1ccc2c(ccn2Cc2ccccc2)c1 |  |  | inactive
O/N=C(\CC(O)(C(F)(F)F)C(F)(F)F)c1cccs1 | < 3.70 | < 4.00 | 
OC1[C@@H]2[C@@H](O)CCCN2C[C@@H](O)[C@H]1O (some centres undefined) | < 3.70 | < 3.70 | 
Fc1ccc(C2=NOC3COC4C=CC=CC4OCC23)cc1 (centres undefined) | < 3.92 | < 3.92 | 
O=c1oc2c/c(=C\c3ccc([N+](=O)[O-])cc3)c(=O)c3cccc1c3-2 | < 3.70 | 4.51 | 
O=C(O)CCCCCCCCCCC(=O)O | < 3.83 | < 3.83 | 
COc1ccc(OC)c2c(C(C)=O)cccc12 | < 3.70 | 4.01 | 
CCOC(=O)c1c[nH]c2oc(/C=N/N3CC(CN4CCOCC4)OC3=O)cc2c1=O (centres undefined) | < 3.52 | 3.79 | 
CSc1nc2c(=O)oc(-c3ccc([N+](=O)[O-])cc3)nc2s1 | < 3.82 | 5.27 | 
O=C(/C=C/c1ccc(Cl)cc1)Oc1ccc(/C=C2\CCCCC2=O)cc1 | < 3.70 | 4.37 | 
CCCCCO/N=C\c1c2c(O)c3c(O)c(C)c4c(c3c1O)C(=O)C(C)(O/C=C\C(OC)C(C)C(OC(C)=O)C(C)C(O)C(C)C(O)C(C)/C=C\C=C(\C)C(=O)N2)O4 (centres undefined) | < 3.70 | 5.05 | 
COC1=NCc2ccccc2-c2ccccc21 | < 3.65 | 3.91 | 
c1cnc2c(c1)-n1cccc1C1(CCSC1)NN2 (centres undefined) | < 3.86 | < 3.86 | 
